# Legend:
# Assay in all cases: Indoor herbicide activity determination, Seed Treatment; pre-emergence (soil spray)
# Format in all cases: in vivo
# Alopecurus japonicus = test system: Alopecurus japonicus
# Excerpt: (§1) The testing method for herbicide activity of the compound of the present invention was as follows:
# (§2) Seed Treatment; pre-emergence: quantitative seeds of gramineous weeds (Echinochloa crusgalli, Eleusine indica, Digitaria sanguinalis, Alopecurus japonicus, Beckmannia syzigachne, Leptochloa chinensis, Polypogon fugax, Alopecurus aequalis, Lolium multiflorum, Poa annua, Aegilops tauschii, Avena fatua, Alopecurus myosuroides, Alopecurus japonicus and Alopecurus aequalis), broad-leaved weeds (Eclipta prostrata, Amaranthus retroflexus, Rorippa indica, Malachium aquaticum, Veronica polita, Conyza canadensis, Sesbania cannabina, Sagittariatrifolia and Schoenoplectiella juncoides), and Cyperus iria were sown in plastic pots having a diameter of 7 cm and holes at the bottom and filled with nutrient soil (sandy soil, pH 6.1, organic matter 1%) respectively, the seeds were covered with an appropriate amount of soil after being sown, then the soil was wetted with water from the bottom, the seeds were cultured in a constant-temperature illuminated culture room for 24 h, and the soil was sprayed by using a 3WP-2000 traveling spray tower produced by the Nanjing Institute of Agricultural Mechanization of the Ministry of Agriculture, where a rotational speed of a main shaft was 96 mm/r, a spray height was 300 mm, an effective spraying range of a nozzle was 350 mm, a spray area was 0.35 m^2, and a flow rate at the nozzle was 390 mL/min.
# (§3) Post-emergence: an appropriate quantity of seeds of gramineous weeds (Echinochloa crusgalli, Eleusine indica, Digitaria sanguinalis, Alopecurus japonicus, Beckmannia syzigachne, Leptochloa chinensis, Polypogon fugax, Alopecurus aequalis, Lolium multiflorum, Poa annua, Aegilops tauschii, Avena fatua, Alopecurus myosuroides, Alopecurus japonicus and Alopecurus aequalis), broad-leaved weeds (Eclipta prostrata, Amaranthus retroflexus, Rorippa indica, Malachium aquaticum, Veronica polita, Conyza canadensis, Sesbania cannabina, Sagittariatrifolia and Schoenoplectiella juncoides), and Cyperus iria were sown in plastic pots having a diameter of 7 cm and holes at the bottom and filled with nutrient soil (sandy soil, pH 6.1, organic matter 1%) respectively, the seeds were covered with an appropriate amount of soil after being sown, then the soil was wetted with water from the bottom, the seeds were cultured in a constant-temperature illuminated culture room until a 2-4 leaf stage, and stems and leaves underwent spray treatment. After the treatment, the test materials were placed in a laboratory and cultured in the constant-temperature illuminated culture room after the liquid was naturally dry in the shade, and results were determined 21 days later. Inhibition rate of fresh weight % = (1−(fresh weight of treated plants)/(fresh weight of control plants)) × 100% [formula]
# Alopecurus myosuroides = test system: Alopecurus myosuroides
# Excerpt: as §1, §2, §3
# Cyperus iria = details: read-out: Herbicidal activities (inhibition rate) Cyperus iria; for inhibition at 60 g/ha: 60 g a.i./ha; for inhibition at 120 g/ha: 120 g a.i./ha
# Excerpt: as §1, §2, §3
# Eclipta prostrata = details: 60 g a.i./ha, read-out: Herbicidal activities (inhibition rate) Eclipta prostrata
# Excerpt: as §1, §2, §3
# Eleusine indica = test system: Eleusine indica
# Excerpt: as §1, §2, §3
# Leptochloa chinensis = test system: Leptochloa chinensis
# Excerpt: as §1, §2, §3
# Lolium multiflorum = test system: Lolium multiflorum
# Excerpt: as §1, §2, §3
# Aegilops tauschii = details: 120 g a.i./ha, read-out: Herbicidal activities (inhibition rate) Aegilops tauschii
# Excerpt: as §1, §2, §3
Compound,inhibition at 60 g/ha (Cyperus iria) [%],inhibition at 60 g/ha (Eclipta prostrata) [%],"Herbicidal activity (inhibition rate class), Eleusine indica (Eleusine indica; Dosage 120 g a.i./ha)","Herbicidal activity (inhibition rate class), Leptochloa chinensis (Leptochloa chinensis; Dosage 120 g a.i./ha)","Herbicidal activities, Eleusine indica (inhibition rate class) (Eleusine indica; Dosage 120 g a.i./ha)","Herbicidal activities, Leptochloa chinensis (inhibition rate class) (Leptochloa chinensis; Dosage 120 g a.i./ha)",further results
C=C[C@]1(C(=O)N[C@H]2C=C[C@@H](C(=O)OC3CCC3)C2)CC(c2cc(Cl)cc(C(F)(F)F)c2)=NO1 [I-478],80 to 100,80 to 100,A (A indicates that the inhibition rate was greater than or equal to 80% to 100%),A (A indicates that the inhibition rate was greater than or equal to 80% to 100%),,,"Herbicidal activity (inhibition rate class), Alopecurus japonicus (Alopecurus japonicus; Dosage 120 g a.i./ha): A (A indicates that the inhibition rate was greater than or equal to 80% to 100%); Herbicidal activity (inhibition rate class), Alopecurus myosuroides (Alopecurus myosuroides; Dosage 120 g a.i./ha): A (A indicates that the inhibition rate was greater than or equal to 80% to 100%); Herbicidal activity (inhibition rate class), Lolium multiflorum (Lolium multiflorum; Dosage 120 g a.i./ha): B (B indicates that the inhibition rate was greater than or equal to 60% to less than 80%)"
C=C[C@]1(C(=O)N[C@H]2C=C[C@@H](C(=O)OCCCCCCC)C2)CC(c2cc(F)cc(C(F)(F)F)c2)=NO1 [I-431],80 to 100,80 to 100,,,A (A indicates that the inhibition rate was greater than or equal to 80% to 100%),A (A indicates that the inhibition rate was greater than or equal to 80% to 100%),"Herbicidal activities, Alopecurus japonicus (inhibition rate class) (Alopecurus japonicus; Dosage 120 g a.i./ha): A (A indicates that the inhibition rate was greater than or equal to 80% to 100%); Herbicidal activities, Alopecurus myosuroides (inhibition rate class) (Alopecurus myosuroides; Dosage 120 g a.i./ha): A (A indicates that the inhibition rate was greater than or equal to 80% to 100%); Herbicidal activities, Lolium multiflorum (inhibition rate class) (Lolium multiflorum; Dosage 120 g a.i./ha): A (A indicates that the inhibition rate was greater than or equal to 80% to 100%)"
O=C(N[C@H]1C[C@@H](C(=O)OCC(F)(F)C(F)(F)F)C1)[C@@]1(C(F)(F)F)CC(c2cc(F)cc(OC(F)(F)F)c2)=NO1 [I-254],80 to 100,80 to 100,,,A (A indicates that the inhibition rate was greater than or equal to 80% to 100%),A (A indicates that the inhibition rate was greater than or equal to 80% to 100%),"Herbicidal activities, Alopecurus japonicus (inhibition rate class) (Alopecurus japonicus; Dosage 120 g a.i./ha): A (A indicates that the inhibition rate was greater than or equal to 80% to 100%); Herbicidal activities, Alopecurus myosuroides (inhibition rate class) (Alopecurus myosuroides; Dosage 120 g a.i./ha): A (A indicates that the inhibition rate was greater than or equal to 80% to 100%)"
O=C(N[C@H]1C[C@@H](C(=O)OC2CCCC2)C1)[C@@]1(C(F)(F)F)CC(c2cc(F)cc(OC(F)(F)F)c2)=NO1 [I-253],80 to 100,60 to 80,,,A (A indicates that the inhibition rate was greater than or equal to 80% to 100%),A (A indicates that the inhibition rate was greater than or equal to 80% to 100%),"Herbicidal activities, Alopecurus japonicus (inhibition rate class) (Alopecurus japonicus; Dosage 120 g a.i./ha): A (A indicates that the inhibition rate was greater than or equal to 80% to 100%); Herbicidal activities, Alopecurus myosuroides (inhibition rate class) (Alopecurus myosuroides; Dosage 120 g a.i./ha): A (A indicates that the inhibition rate was greater than or equal to 80% to 100%)"
C=C[C@]1(C(=O)N[C@H]2C=C[C@@H](C(=O)OC(C)C)C2)CC(c2cc(Cl)cc(C(F)(F)F)c2)=NO1 [I-483],80 to 100,80 to 100,A (A indicates that the inhibition rate was greater than or equal to 80% to 100%),A (A indicates that the inhibition rate was greater than or equal to 80% to 100%),,,
C#CC(CC)OC(=O)[C@@H]1C=C[C@H](NC(=O)[C@@]2(C)CC(c3cc(Cl)cc(C(F)(F)F)c3)=NO2)C1 (stereo partly shown) [I-514],80 to 100,80 to 100,A (A indicates that the inhibition rate was greater than or equal to 80% to 100%),A (A indicates that the inhibition rate was greater than or equal to 80% to 100%),,,"Herbicidal activity (inhibition rate class), Alopecurus japonicus (Alopecurus japonicus; Dosage 120 g a.i./ha): A (A indicates that the inhibition rate was greater than or equal to 80% to 100%); Herbicidal activity (inhibition rate class), Alopecurus myosuroides (Alopecurus myosuroides; Dosage 120 g a.i./ha): A (A indicates that the inhibition rate was greater than or equal to 80% to 100%); Herbicidal activity (inhibition rate class), Lolium multiflorum (Lolium multiflorum; Dosage 120 g a.i./ha): A (A indicates that the inhibition rate was greater than or equal to 80% to 100%)"
COC(=O)[C@@H]1C=C[C@H](NC(=O)[C@@]2(C(F)F)CC(c3cc(F)cc(C(F)(F)F)c3)=NO2)C1 [I-532],80 to 100,80 to 100,A (A indicates that the inhibition rate was greater than or equal to 80% to 100%),A (A indicates that the inhibition rate was greater than or equal to 80% to 100%),,,
C=CC1(C(=O)N[C@H]2C[C@@H](C(=O)OCCSC)C2)CC(c2cc(F)cc(F)c2)=NO1 (mixture of isomers) [I-8],,,,,,,"inhibition at 120 g/ha (Aegilops tauschii): 80 to 100%; Herbicidal activities, Alopecurus japonicus (inhibition rate class) (Alopecurus japonicus; Dosage 240 g a.i./ha): A (A indicates that the inhibition rate was greater than or equal to 80% to 100%); Herbicidal activities, Alopecurus myosuroides (inhibition rate class) (Alopecurus myosuroides; Dosage 240 g a.i./ha): A (A indicates that the inhibition rate was greater than or equal to 80% to 100%); inhibition at 120 g/ha (Cyperus iria): 80 to 100%; Herbicidal activities, Eleusine indica (inhibition rate class) (Eleusine indica; Dosage 240 g a.i./ha): A (A indicates that the inhibition rate was greater than or equal to 80% to 100%); Herbicidal activities, Leptochloa chinensis (inhibition rate class) (Leptochloa chinensis; Dosage 240 g a.i./ha): A (A indicates that the inhibition rate was greater than or equal to 80% to 100%); Herbicidal activities, Lolium multiflorum (inhibition rate class) (Lolium multiflorum; Dosage 240 g a.i./ha): A (A indicates that the inhibition rate was greater than or equal to 80% to 100%)"
C=C[C@]1(C(=O)N[C@H]2C=C[C@@H](C(=O)OC)C2)CC(c2cc(Cl)cc(OC(F)(F)F)c2)=NO1 [I-471],80 to 100,80 to 100,A (A indicates that the inhibition rate was greater than or equal to 80% to 100%),A (A indicates that the inhibition rate was greater than or equal to 80% to 100%),,,
CSCCOC(=O)[C@@H]1C=C[C@H](NC(=O)C2(C)CC(c3cc(F)cc(C(F)(F)F)c3)=NO2)C1 (stereo partly shown) [I-497],,,,,,,"inhibition at 120 g/ha (Aegilops tauschii): 80 to 100%; Herbicidal activity (inhibition rate class), Alopecurus japonicus (Alopecurus japonicus; Dosage 240 g a.i./ha): A (A indicates that the inhibition rate was greater than or equal to 80% to 100%); Herbicidal activity (inhibition rate class), Alopecurus myosuroides (Alopecurus myosuroides; Dosage 240 g a.i./ha): A (A indicates that the inhibition rate was greater than or equal to 80% to 100%); inhibition at 120 g/ha (Cyperus iria): 80 to 100%; Herbicidal activity (inhibition rate class), Eleusine indica (Eleusine indica; Dosage 240 g a.i./ha): A (A indicates that the inhibition rate was greater than or equal to 80% to 100%); Herbicidal activity (inhibition rate class), Leptochloa chinensis (Leptochloa chinensis; Dosage 240 g a.i./ha): A (A indicates that the inhibition rate was greater than or equal to 80% to 100%); Herbicidal activity (inhibition rate class), Lolium multiflorum (Lolium multiflorum; Dosage 240 g a.i./ha): A (A indicates that the inhibition rate was greater than or equal to 80% to 100%)"
C=C[C@]1(C(=O)N[C@H]2C=C[C@@H](C(=O)OCc3ccccc3)C2)CC(c2cc(F)cc(C(F)(F)F)c2)=NO1 [I-439],80 to 100,80 to 100,,,A (A indicates that the inhibition rate was greater than or equal to 80% to 100%),A (A indicates that the inhibition rate was greater than or equal to 80% to 100%),
C=CC(C)OC(=O)[C@@H]1C=C[C@H](NC(=O)[C@@]2(C=C)CC(c3cc(F)cc(C(F)(F)F)c3)=NO2)C1 (stereo partly shown) [I-444],80 to 100,80 to 100,,,A (A indicates that the inhibition rate was greater than or equal to 80% to 100%),A (A indicates that the inhibition rate was greater than or equal to 80% to 100%),

# — patent EP4722201A1, “3-PHENYLISOXAZOLINE-5-CARBOXAMIDE COMPOUND, AND PREPARATION METHOD THEREFOR, HERBICIDAL COMPOSITION THEREOF AND USE THEREOF” (Jiangsu Flag Chemical Industry Co., Ltd, priority 2023, dated 2024)
